Legend:
RAW264.7 [1] = experiment: Inhibition of LPS-induced NO production in mouse RAW264.7 cells preincubated for 30 mins followed by LPS stimulation and measured after 24 hrs by Griess assay; format: functional, cell-based
RAW264.7 [2] = experiment: Cytotoxicity against mouse RAW264.7 cells at 50 uM after 48 hrs by MTT assay; format: cell-based; details: raw264.7, 48 h

SMILES | IC50 (RAW264.7 [1]) [µM] | Activity (RAW264.7 [2])
COC(=O)[C@@]1(CO)CCCC2=C1C(=O)C[C@@H](C)[C@]21C[C@@H](c2ccoc2)OC1=O | > 50 | Non-Toxic
COC(=O)C1(C(=O)OC)CCCC2=C1[C@@H](OC(C)=O)C[C@@H](C)[C@]21C[C@@H](c2ccoc2)OC1=O | > 50 | Non-Toxic
C[C@@H]1C[C@@H](O)C2=C(C[C@@H]3C[C@]2(C)C(=O)O3)[C@@]12C[C@@H](c1ccoc1)OC2=O | > 50 | Non-Toxic
C[C@@H]1C[C@H]2OC(=O)C3=C2[C@@H](CCC3)[C@@]12C[C@@H](c1ccoc1)OC2=O | > 50 | Non-Toxic
COC(=O)C1(C(=O)OC)C2=C(CC[C@@H]1OC(C)=O)[C@@]1(C[C@@H](c3ccoc3)OC1=O)[C@H](C)CC2=O | > 50 | Non-Toxic
COC(=O)C1(C(=O)OC)CCCC2=C1[C@@H]1C[C@@H](C)[C@@]2(CC(=O)c2ccoc2)C(=O)O1 | > 50 | Non-Toxic
COC(=O)[C@]1(C)C2=C(CC[C@H]1O)[C@@]1(C[C@@H](c3ccoc3)OC1=O)[C@H](C)C[C@@H]2OC(C)=O | > 50 | Non-Toxic
COC(=O)C1(C(=O)OC)CCCC2=C(CC(=O)c3ccoc3)[C@H](C)CC=C21 | > 50 | Non-Toxic
COC(=O)[C@@]1(CO)CCCC2=C1[C@@H](O)C[C@@H](C)[C@]21C[C@@H](c2ccoc2)OC1=O | > 50 | Non-Toxic
COC(=O)[C@@]1(C)CC(=O)C=C2[C@@](C)(CC(=O)c3ccoc3)[C@H](C)CC[C@]21O | > 50 | Non-Toxic
C[C@@H]1C[C@H]2OC(=O)[C@@]3(CO)CCCC(=C23)[C@@]12C[C@@H](c1ccoc1)OC2=O | > 50 | Non-Toxic
COC(=O)[C@@]1(C)C2=C(CC[C@H]1OC(C)=O)[C@@]1(C[C@@H](c3ccoc3)OC1=O)[C@H](C)CC2=O | > 50 | Non-Toxic
COC(=O)[C@@]1(COC(C)=O)CCCC2=C1CC[C@@H](C)[C@]21C[C@@H](c2ccoc2)OC1=O | > 50 | Non-Toxic
COC(=O)[C@@]1(C)C2=C(CC[C@H]1O)[C@@]1(C[C@@H](c3ccoc3)OC1=O)[C@H](C)CC2 | > 50 | Non-Toxic
C[C@@H]1C[C@@H]2OC(=O)C3=C2[C@](O)(CCC3)[C@@]12C[C@@H](c1ccoc1)OC2=O | > 50 | Non-Toxic
Cc1cc(O)cc2c1CC[C@@H](C)[C@]2(C)CC(=O)c1ccoc1 | 23.7 | Non-Toxic
COC(=O)[C@@]1(C)C2=C(CC[C@H]1OC(C)=O)[C@@]1(C[C@@H](c3ccoc3)OC1=O)[C@H](C)CC2 [CRASSIFOLIN F] | > 50 | Non-Toxic
O=c1c(O)c(-c2ccc(O)c(O)c2)oc2cc(O)cc(O)c12 [QUERCETIN] | 15.1 | 
C[C@@H]1C[C@@H]2OC(=O)C3=C2[C@H](CCC3)[C@@]12C[C@@H](c1ccoc1)OC2=O [TEUCVIN] | > 50 | Non-Toxic

Second part, led by results:

IC50 (RAW264.7 [1]) [µM] | SMILES | Activity (RAW264.7 [2])
> 50 | CO[C@@]12C[C@@H](C)[C@]3(C[C@@H](c4ccoc4)OC3=O)[C@@H]3CCCC(=C31)C(=O)O2 | Non-Toxic
> 50 | COC(=O)[C@@]1(CO)CCCC2=C1[C@@H](OC(C)=O)C[C@@H](C)[C@]21C[C@@H](c2ccoc2)OC1=O | Non-Toxic
> 50 | COC(=O)[C@]1(C)CCCC2=C1CC[C@@H](C)[C@]2(C)CCC1=CC(=O)OC1 | Non-Toxic
> 50 | CO[C@@H]1C[C@@H](C)[C@](C)(CC(=O)c2ccoc2)C2=C1[C@]1(C)C[C@H](C2)OC1=O | Non-Toxic
> 50 | COC(=O)[C@]1(C)CCCC2=C1C(=O)C[C@@H](C)[C@]2(C)CCC1=CC(=O)OC1 | Non-Toxic
> 50 | C[C@@H]1C[C@@H]2OC(=O)[C@]3(O)CCCC(=C23)[C@@]12C[C@@H](c1ccoc1)OC2=O | Non-Toxic
> 50 | COC(=O)[C@@]1(COC(C)=O)CCCC2=C1[C@@H](O)C[C@@H](C)[C@]21C[C@@H](c2ccoc2)OC1=O | Non-Toxic
> 50 | COC(=O)[C@@]1(C)CCCC2=C1[C@@H](OC(C)=O)C[C@@H](C)[C@]21C[C@@H](c2ccoc2)OC1=O | Non-Toxic
> 50 | COC(=O)[C@@]1(C)CCCC2=C1[C@@H](O)C[C@@H](C)[C@]21C[C@@H](c2ccoc2)OC1=O | Non-Toxic
> 50 | C[C@@H]1CCC2=C(C[C@@H]3C[C@]2(C)C(=O)O3)[C@@]12C=C(c1ccoc1)OC2=O | Non-Toxic
17.2 | CC1=CC(=O)C2=C3[C@@]1(O)CC[C@@H](C)[C@]3(C)C=C2c1ccoc1 | Non-Toxic
> 50 | COC(=O)[C@@]1(C)CC(=O)C2=C3[C@@](C)(CC2=O)[C@H](C)CC[C@]31O | Non-Toxic
> 50 | C[C@@H]1CCC2=C(C[C@H]3C[C@]2(C)C(=O)O3)[C@@]1(C)CC(=O)c1ccoc1 | Non-Toxic
